From US6172185A, “Antimicrobial cationic peptide derivatives of bactenecin” (priority 1998, dated 2001)
Where a SMILES comes first, the peptide text is derived from it. Where no end group is shown, it is not given here.

Experiments:
E.coli UB1005 = assay: MIC, modified two-fold microtitre broth dilution; format: cell-based, Escherichia coli
Source text: (§1) Bacterial strains for antimicrobial activity testing included Escherichia coli UB1005 and its antibiotic supersusceptible derivative DC2 (Richmond et al., Antimicrob. Agents Chemother. 10:215, 1976), Pseudomonas aeruginosa K799 and its antibiotic-supersusceptible derivative Z61 (Angus et al., Antimicrob. Agents Chemother. 21:299, 1982), Salmonella typhimurium 14028s and its defensin-supersusceptible derivative MS7953s (Fields et al., Science, 243:1059, 1989), Staphylococcus aureus ATCC25923 and a clinical isolate Staphylococcus aureus SAP1007. Other Gram-positive bacterial strains include Staphylococcus epidermidis (clinical isolate) and Enterococcus faecalis ATCC29212, Listeria monocytogenes, Corynebacterium xerosis, Streptococcus pneumoniae ATTC49619, Streptococcus pyogenes ATTC19615, Streptococcus mitis.
(§2) The minimal inhibitory concentration (MIC) of peptides was determined by a modified two-fold microtitre broth dilution method modified from that of Steinberg et al (Steinberg, Antimicrob. Agents Chemother. 41:1738, 1997). Using the classical method (Amsterdam, Antibiotics in Laboratory Medicine (Lorian, V., ed) pp. 72-78, 1991), higher concentrations of peptides tend to precipitate in the LB broth, thus the concentrations of peptides in the sequential wells are not accurate. Also the peptides stick to the most readily available (tissue-culture treated polystyrene) 96-well microtitre plates. Therefore the 2× series of dilutions was performed in Eppendoff tubes (polypropylene) before mixing with LB broth. Serial of two fold dilutions of peptides ranging from 640 μg/ml to 1.25 μg/ml were made in 0.2% BSA, 0.01% acetic acid buffer in the Eppendoff tubes. Ten μl of each concentration was added to each corresponding well of a 96-well microtiter plate (polypropylene cluster; Costar Corporation, Cambridge, Mass.). Bacteria were grown overnight and diluted 10-5 into fresh LB broth or Todd Hewitt broth for Streptococcus. LB medium contained 10 g/1l tryptone and 5 g/yeast extract, with no salt. Todd Hewitt contained 500 g/l beef heart infusion, 20 g/l bacto neopeptone, 2 g/l bacto dextrose, 2 g/l sodium chloride, 0.4 g/l disodium phosphate, 2.5 g/l sodium carbonate. One hundred […] containing about 10^4-10^5 CFU/ml of tested bacteria was added to each well. The plate was incubated at 37° C. overnight. The MIC was taken as the concentration at which greater than 90% of growth inhibition was observed.

P.aeruginosa = assay: MIC, modified two-fold microtitre broth dilution; format: cell-based, Pseudomonas aeruginosa
Source text: as §1, §2

S.typhimurium = assay: MIC, modified two-fold microtitre broth dilution; format: cell-based, Salmonella typhimurium
Source text: as §1, §2

Staph. aureus = assay: MIC, modified two-fold microtitre broth dilution; format: cell-based, Staphylococcus aureus
Source text: as §1, §2

Staph. epidermidis = assay: MIC, modified two-fold microtitre broth dilution; format: cell-based, Staphylococcus epidermidis
Source text: as §1, §2

E.facaelis = assay: MIC, modified two-fold microtitre broth dilution; format: cell-based, Enterococcus faecalis
Source text: as §1, §2

Listeria monocytogenes = assay: MIC, modified two-fold microtitre broth dilution; format: cell-based
Source text: as §1, §2

C. xerosis = assay: MIC, modified two-fold microtitre broth dilution; format: cell-based, Corynebacterium xerosis
Source text: as §1, §2

Strep. pyogenes = assay: MIC, modified two-fold microtitre broth dilution; format: cell-based, Streptococcus pyogenes; conditions: for MIC Strep. pyogeness: Table IID, linear (Group 2): reduced forms of the peptides, Bac (Oxidized) as comparator
Source text: as §1, §2

Strep. mitis = assay: MIC, modified two-fold microtitre broth dilution; format: cell-based, Streptococcus mitis; conditions: for MIC Strep. mitis: Table IID, linear (Group 2): reduced forms of the peptides, Bac (Oxidized) as comparator
Source text: as §1, §2

Strep. pneumoniae = assay: MIC, modified two-fold microtitre broth dilution; format: cell-based, Streptococcus pneumoniae; conditions: for MIC Strep. pneumonia: Table IID, linear (Group 2): reduced forms of the peptides, Bac (Oxidized) as comparator; for MIC S. pneumonia: Table IIIB, non-linear positive-charge modification derivatives; for MIC S. pneumoniae: Table IVB, non-linear hydrophobicity modification derivatives
Source text: as §1, §2

[1] = Table IIC, linear (Group 2): reduced forms of the peptides, Bac (Oxidized) as comparator
[2] = table IIA, non-linear positive-charge modification derivatives
[3] = Table IID, linear (Group 2): reduced forms of the peptides, Bac (Oxidized) as comparator
[4] = Table IIIB, non-linear positive-charge modification derivatives
[5] = Table IVA, non-linear hydrophobicity modification derivatives
[6] = Table IVB, non-linear hydrophobicity modification derivatives

Row | Compound | Minimal Agglutinating Concentration, Oxidized Form (Human Red Blood Cells) [µg/mL] | MIC E.coli UB1005 (E.coli UB1005; [1]) [µg/mL] | MIC E.coli UB1005 (E.coli UB1005; [2]) [µg/mL] | MIC P. aeruginosa (P.aeruginosa; [1]) [µg/mL] | MIC P. aeruginosa (P.aeruginosa; [2]) [µg/mL] | MIC S. typhimurium (S.typhimurium; [1]) [µg/mL] | MIC S. typhimurium (S.typhimurium; [2]) [µg/mL] | MIC Staph. aureus (Staph. aureus; [3]) [µg/mL] | MIC Staph. aureus (Staph. aureus; [4]) [µg/mL] | MIC Staph. epidermidis (Staph. epidermidis; [3]) [µg/mL] | MIC Staph. epidermidis (Staph. epidermidis; [4]) [µg/mL] | MIC E.facaelis (E.facaelis; [3]) [µg/mL] | MIC E.facaelis (E.facaelis; [4]) [µg/mL] | MIC Listeria (Listeria monocytogenes; [3]) [µg/mL] | MIC C. xerosis (C. xerosis; [3]) [µg/mL] | MIC Strep. pyogeness (Strep. pyogenes) [µg/mL] | MIC Strep. mitis (Strep. mitis) [µg/mL] | MIC Strep. pneumonia (Strep. pneumoniae) [µg/mL] | Minimal Agglutinating Concentration, Reduced Form (Human Red Blood Cells) [µg/mL] | other results
1 | CC[C@H](C)[C@@H]1NC(=O)[C@H](C(C)C)NC(=O)[C@H](C(C)C)NC(=O)[C@H]([C@@H](C)CC)NC(=O)[C@@H]2CCCN2C(=O)[C@@H](NC(=O)[C@H](CCCNC(=N)N)NC(=O)[C@@H](N)CCCNC(=N)N)CSSC[C@@H](C(=O)N[C@@H](CCCNC(=N)N)C(=O)O)NC(=O)[C@H](C(C)C)NC(=O)[C@H](CCCNC(=N)N)NC1=O [Bac R, P, RRCPIVVIRVCR] (HELM PEPTIDE1{R.R.C.P.I.V.V.I.R.V.C.R}$PEPTIDE1,PEPTIDE1,3:R3-11:R3$$$V2.0) | > 64 | – | – | – | – | – | – | – | – | – | – | – | – | – | – | – | – | – | – | –
2 | KKCPIVVIRVCK [Bac 3K, P] | > 64 | > 64 | 16 | > 64 | > 64 | > 64 | 32 | > 64 | > 64 | > 64 | > 64 | > 64 | > 64 | 4 | 4 | 64 | 0.25 | > 64 | 64 | MIC Listeria (Listeria monocytogenes; [4]): 8 µg/mL; MIC C. xerosis (C. xerosis; [4]): 16 µg/mL; MIC Strep. pyogenes (Strep. pyogenes; [4]): > 64 µg/mL; MIC S. mitis (Strep. mitis; [4]): 2 µg/mL; MIC S. pneumonia (Strep. pneumoniae): > 64 µg/mL
3 | RICRIVVIRCIR-NH2 (cysteine pairing not given here) [Bac 2I-NH2] | 32 | – | 4 | – | 16 | – | 8 | – | 32 | – | 8 | – | > 32 | – | – | – | – | – | – | –
4 | RLARIVVIRVAR-NH2 [Bac 2A-NH2, RLARIVVIRVAR-NH2] | > 64 | – | – | – | – | – | – | – | – | – | – | – | – | – | – | – | – | – | – | –
5 | RLCPRVRIRVCR-NH2 (cysteine pairing not given here) [Bac 2R, P-NH2] | > 32 | – | 4 | – | 16 | – | 32 | – | > 32 | – | 16 | – | > 32 | – | – | – | – | – | – | –
6 | RLCRIVPVIRVCR [Bac P] | 64 | 16 | – | 32 | – | 64 | – | > 64 | – | 16 | – | 32 | – | 4 | 2 | 32 | 2 | > 64 | 64 | MIC E.coli UB1005 (E.coli UB1005; [5]): 32 µg/mL; MIC P. aeruginosa (P.aeruginosa; [5]): > 64 µg/mL; MIC S. typhimurium (S.typhimurium; [5]): > 64 µg/mL; MIC Staph. aureus (Staph. aureus; [6]): 64 µg/mL; MIC Staph. epidermidis (Staph. epidermidis; [6]): 64 µg/mL; MIC E.facaelis (E.facaelis; [6]): > 64 µg/mL; MIC Listeria (Listeria monocytogenes; [6]): 2 µg/mL; MIC C. xerosis (C. xerosis; [6]): 8 µg/mL; MIC Strep. pyogenes (Strep. pyogenes; [6]): 64 µg/mL; MIC S. mitis (Strep. mitis; [6]): 4 µg/mL; MIC S. pneumoniae (Strep. pneumoniae): > 64 µg/mL
7 | RLCRIVWVIRVCR [Bac W] | 32 | > 64 | – | > 64 | – | 64 | – | > 64 | – | 32 | – | 32 | – | 2 | 1 | 16 | 1 | 32 | 4 | MIC E.coli UB1005 (E.coli UB1005; [5]): 8 µg/mL; MIC P. aeruginosa (P.aeruginosa; [5]): 4 µg/mL; MIC S. typhimurium (S.typhimurium; [5]): 4 µg/mL; MIC Staph. aureus (Staph. aureus; [6]): 4 µg/mL; MIC Staph. epidermidis (Staph. epidermidis; [6]): 2 µg/mL; MIC E.facaelis (E.facaelis; [6]): 8 µg/mL; MIC Listeria (Listeria monocytogenes; [6]): 0.5 µg/mL; MIC C. xerosis (C. xerosis; [6]): 1 µg/mL; MIC Strep. pyogenes (Strep. pyogenes; [6]): 2 µg/mL; MIC S. mitis (Strep. mitis; [6]): 1 µg/mL; MIC S. pneumoniae (Strep. pneumoniae): 16 µg/mL
8 | RLSRIVVIRVCR-NH2 [Bac S-NH2, RLSRIVVIRVCR-NH2] | > 64 | – | – | – | – | – | – | – | – | – | – | – | – | – | – | – | – | – | – | –
9 | RLSRIVVIRVSR-NH2 [Bac 2S-NH2, RLSRIVVIRVSR-NH2] | > 64 | – | – | – | – | – | – | – | – | – | – | – | – | – | – | – | – | – | – | –
10 | RRCPIVVIRVCR-NH2 (cysteine pairing not given here) [Bac R, P-NH2] | > 64 | – | 2 | – | 16 | – | 16 | – | 32 to 64 | – | 32 | – | > 64 | – | – | – | – | – | – | MIC Listeria (Listeria monocytogenes; [4]): 1 µg/mL; MIC C. xerosis (C. xerosis; [4]): 2 µg/mL; MIC Strep. pyogenes (Strep. pyogenes; [4]): 16 µg/mL; MIC S. mitis (Strep. mitis; [4]): 2 µg/mL; MIC S. pneumonia (Strep. pneumoniae): > 64 µg/mL
